Data taken from article PMC9719525, “Design of MMP-1 inhibitors via SAR transfer and experimental validation” (Scientific Reports, 2022).

Columns and labels:
[1] = biological target: T1, matrix metalloproteinase 1 (MMP-1) (Homo sapiens, UniProt P03956); experiment: colorimetric MMP-1 enzyme assay; compound previously reported (ref […]), resynthesized here; assay type: biochemical; conditions: cited from earlier work
T1 construct: gene MMP1
T1 sequence (P03956 100-469): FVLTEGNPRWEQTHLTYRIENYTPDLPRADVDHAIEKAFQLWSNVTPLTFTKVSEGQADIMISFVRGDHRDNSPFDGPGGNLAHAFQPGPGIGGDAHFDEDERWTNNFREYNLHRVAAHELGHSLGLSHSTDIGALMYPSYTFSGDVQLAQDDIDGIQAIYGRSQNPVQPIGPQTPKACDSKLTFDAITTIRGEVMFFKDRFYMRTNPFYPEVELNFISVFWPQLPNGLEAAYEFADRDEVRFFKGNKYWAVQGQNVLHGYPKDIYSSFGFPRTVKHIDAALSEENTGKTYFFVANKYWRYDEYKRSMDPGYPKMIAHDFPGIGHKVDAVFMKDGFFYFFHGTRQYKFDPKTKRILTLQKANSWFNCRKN

[2] = biological target: T1, matrix metalloproteinase 1 (MMP-1); experiment: colorimetric MMP-1 enzyme assay (ENZ BML-AK404-0001 kit, A412nm); assay type: biochemical

C[C@H](C(=O)NO)N1CC[C@@](C)(c2ccc(C(F)(F)F)cc2)C1=O [compound 4]
IC50 [1]: 0.12 ± 0.01 µM

COc1ccc([C@]2(C)CCN([C@H](C)C(=O)NO)C2=O)cc1 [compound 5, (R)-N-hydroxy-2-((S)-3-(4-methoxyphenyl)-3-methyl-2-oxopyrrolidin-1-yl)propenamide]
IC50 [2]: 0.36 ± 0.04 µM

C[C@H](C(=O)NO)N1CC[C@@](C)(c2ccc(Cl)cc2)C1=O [compound 6, (R)-N-hydroxy-2-((S)-3-(4-chlorophenyl)-3-methyl-2-oxopyrrolidin-1-yl)propenamide]
IC50 ([2]; read-out: IC50 (μM)^a): 0.034 ± 0.026 µM

Cc1ccc([C@]2(C)CCN([C@H](C)C(=O)NO)C2=O)cc1 [compound 7, (R)-N-hydroxy-2-((S)-3-(p-tolyl)-3-methyl-2-oxopyrrolidin-1-yl)propenamide]
IC50 ([2]; read-out: IC50 (μM)^a): 0.5 ± 0.023 µM
